# Results: PubChem BioAssay (NCI)
#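 Interpolation was linear, between the two tested concentrations surrounding the appropriate level; five concentrations were tested over 48 hours in 96-well plates. GI50 = concentration required for 50% inhibition of growth. At the TGI there is no net growth.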
# Tests used:
# Test in all cases: NCI anticancer screen, dose series, 48 h
# [1] = tested on: SN12C renal
# [2] = tested on: 786-0 renal
# [3] = tested on: RXF 393 renal
# [4] = tested on: HOP-92 NSCLC
# [5] = tested on: BT-549 breast
# [6] = tested on: KM12 colon
# [7] = tested on: SK-MEL-5 melanoma
# [8] = tested on: T-47D breast
# [9] = tested on: SK-MEL-2 melanoma
# [10] = tested on: UO-31 renal
# [11] = tested on: SK-MEL-28 melanoma
# [12] = tested on: ACHN renal
# [13] = tested on: OVCAR-4 ovarian
# [14] = tested on: CAKI-1 renal
# [15] = tested on: MDA-MB-435
# [16] = tested on: HCT-15 colon
# [17] = tested on: HS 578T breast
# [18] = tested on: SR leukemia
# [19] = tested on: NCI-H460 lung
# [20] = tested on: LOX IMVI melanoma
# [21] = tested on: MCF7 breast
# [22] = tested on: HCC-2998 colon
# [23] = tested on: COLO 205 colon
# [24] = tested on: A549 NSCLC
# [25] = tested on: SNB-75 CNS
# [26] = tested on: SK-OV-3 ovarian
# [27] = tested on: NCI-H522 lung
# [28] = tested on: CCRF-CEM leukemia
# [29] = tested on: OVCAR-3 ovarian
# [30] = tested on: DU-145 prostate
# [31] = tested on: MOLT-4 leukemia
# [32] = tested on: SF-268 CNS
# [33] = tested on: RPMI-8226 leukemia
# [34] = tested on: HL-60(TB) leukemia
# [35] = tested on: EKVX NSCLC
# [36] = tested on: OVCAR-8 ovarian
# [37] = tested on: HCT-116 colon
# [38] = tested on: TK-10 renal
# [39] = tested on: SNB-19 CNS
# [40] = tested on: NCI/ADR-RES ovarian
# [41] = tested on: M14 melanoma
# [42] = tested on: A498 renal
# [43] = tested on: NCI-H226 lung
# [44] = tested on: IGROV1 ovarian
# [45] = tested on: OVCAR-5 ovarian
# [46] = tested on: PC-3 prostate
# [47] = tested on: SF-295 CNS
# [48] = tested on: SF-539 CNS
# [49] = tested on: UACC-257 melanoma
# [50] = tested on: U251 CNS
# [51] = tested on: NCI-H23 lung
# [52] = tested on: HOP-62 NSCLC
# [53] = tested on: MDA-MB-231 breast
# [54] = tested on: UACC-62 melanoma
# [55] = tested on: K-562 leukemia
# [56] = tested on: SW-620 colon
compound,measurement,setting,value
O=C(Oc1ccccc1)C(Br)C(Br)c1ccccc1 (configuration not stated),GI50,[1],1.88 µM
same,TGI,[1],4.5 µM
same,GI50,[2],4.59 µM
same,TGI,[2],16.8 µM
same,GI50,[3],1.74 µM
same,TGI,[3],3.23 µM
same,GI50,[4],2.73 µM
same,TGI,[4],7.52 µM
same,GI50,[5],11.7 µM
same,TGI,[5],25.6 µM
same,GI50,[6],1.93 µM
same,TGI,[6],3.75 µM
same,GI50,[7],13.1 µM
same,TGI,[7],25.8 µM
same,GI50,[8],2.62 µM
same,TGI,[8],6.23 µM
same,GI50,[9],16.1 µM
same,TGI,[9],33.1 µM
same,GI50,[10],1.72 µM
same,TGI,[10],3.34 µM
same,GI50,[11],2.64 µM
same,TGI,[11],7.11 µM
same,GI50,[12],2.06 µM
same,TGI,[12],3.79 µM
same,GI50,[13],2.25 µM
same,TGI,[13],5.04 µM
same,GI50,[14],1.65 µM
same,TGI,[14],3.06 µM
same,GI50,[15],1.62 µM
same,TGI,[15],3.09 µM
same,GI50,[16],2.32 µM
same,TGI,[16],6.24 µM
same,GI50,[17],2.87 µM
same,TGI,[17],8.12 µM
same,GI50,[18],1.93 µM
same,TGI,[18],5.5 µM
same,GI50,[19],14.5 µM
same,TGI,[19],29.8 µM
same,GI50,[20],1.9 µM
same,TGI,[20],4 µM
same,GI50,[21],1.68 µM
same,TGI,[21],11.4 µM
same,GI50,[22],11.8 µM
same,TGI,[22],24.7 µM
same,GI50,[23],1.98 µM
same,TGI,[23],3.83 µM
same,GI50,[24],18 µM
same,TGI,[24],38.5 µM
same,GI50,[25],15.7 µM
same,TGI,[25],30.1 µM
same,GI50,[26],15.9 µM
same,TGI,[26],29.3 µM
same,GI50,[27],1.69 µM
same,TGI,[27],3.39 µM
same,GI50,[28],1.39 µM
same,TGI,[28],6.68 µM
same,GI50,[29],1.72 µM
same,TGI,[29],3.14 µM
same,GI50,[30],3.18 µM
same,TGI,[30],9.38 µM
same,GI50,[31],3.09 µM
same,TGI,[31],11.9 µM
same,GI50,[32],4.15 µM
same,TGI,[32],15.2 µM
same,GI50,[33],2.75 µM
same,TGI,[33],7.9 µM
same,GI50,[34],3.13 µM
same,TGI,[34],15.9 µM
same,GI50,[35],11.9 µM
same,TGI,[35],24.8 µM
same,GI50,[36],6.11 µM
same,TGI,[36],21.8 µM
same,GI50,[37],1.8 µM
same,TGI,[37],3.54 µM
same,GI50,[38],2.19 µM
same,TGI,[38],4.95 µM
same,GI50,[39],11.9 µM
same,TGI,[39],24.6 µM
same,GI50,[40],3.71 µM
same,TGI,[40],19.9 µM
same,GI50,[41],2.68 µM
same,TGI,[41],7.51 µM
same,GI50,[42],10.5 µM
same,TGI,[42],22.4 µM
same,GI50,[43],5 µM
same,TGI,[43],18.7 µM
same,GI50,[44],2 µM
same,TGI,[44],3.96 µM
same,GI50,[45],7 µM
same,TGI,[45],20.8 µM
same,GI50,[46],14.9 µM
same,TGI,[46],30.1 µM
same,GI50,[47],4.88 µM
same,TGI,[47],18.3 µM
same,GI50,[48],4.76 µM
same,TGI,[48],16.4 µM
same,GI50,[49],2.06 µM
same,TGI,[49],4.8 µM
same,GI50,[50],4.13 µM
same,TGI,[50],15.8 µM
same,GI50,[51],7.2 µM
same,TGI,[51],24.3 µM
same,GI50,[52],14.5 µM
same,TGI,[52],28.3 µM
same,GI50,[53],14.4 µM
same,TGI,[53],29.6 µM
same,GI50,[54],5.51 µM
same,TGI,[54],18.2 µM
same,GI50,[55],1.95 µM
same,TGI,[55],9 µM
same,GI50,[56],1.74 µM
same,TGI,[56],3.29 µM
